We go through 104 compounds from PubChem BioAssay AID608 (Sanford-Burnham Center for Chemical Genomics, 2007).

Several values for one entry are separate records, joined by “and”; a condition that tells them apart may be missing. Equal entries are not always repeated. Activity calls are given as the source filed them. The rule behind the calls is not given here.

Sequence of Peptidyl-prolyl cis-trans isomerase FKBP1A (Homo sapiens) (P62942 whole entry, looked up): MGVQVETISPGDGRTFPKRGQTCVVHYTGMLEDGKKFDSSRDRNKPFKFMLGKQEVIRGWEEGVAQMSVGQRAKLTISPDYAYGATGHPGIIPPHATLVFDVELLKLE

The assay has as its target Peptidyl-prolyl cis-trans isomerase FKBP1A (Homo sapiens) (UniProt P62942). Briefly: FKBP12 binders, biophysical, NMR detection (AID 608). As to conditions: NMR binding, purified FKBP12.
Take `NC(=O)CNC(=O)c1ccc2ccccc2n1`: the Kd (in general, the constant that tells how readily two partners part at equilibrium) is > 4 mM (inactive). For `Cn1cnnc1SCC(=O)Nc1nccs1` the value was > 4 mM (inactive); for `COc1cc2c(cc1OC)-c1cc3ccc(OC)c(OC)c3c[n+]1CC2`, > 4 mM (inactive). For `Nc1c(F)c(F)nc(F)c1F` the value was > 4 mM (inactive); for `CC(=O)Nc1c(C)n(C)n(-c2ccccc2)c1=O`, > 4 mM (inactive); for `O=C(Nc1ccc2ccccc2c1)c1cnccn1`, > 4 mM (inactive). `CCSc1nc(C)c(CC)c(C)c1C(N)=O`: the Kd is > 4 mM (inactive). For `c1ccc(SCc2nc(-c3ccncc3)no2)cc1` the value was 0.314 mM and 0.167 mM. For `CS(=O)(=O)N1CCN(C(=O)c2ccccc2F)CC1` the value was > 4 mM (inactive); for `c1ccc2[nH]c(CCn3cncn3)nc2c1`, > 4 mM (inactive); for `c1cc2n(c1)CCNC2c1ccncc1` (centres undefined), > 4 mM (inactive). The same measure for `COc1ccccc1NC(N)=S`: > 4 mM (inactive); for `CC1(C)C2CC[C@]3(C)C(C(=O)C=C4[C@@H]5C[C@@](C)(C(=O)O)CC[C@]5(C)CC[C@]43C)[C@@]2(C)CC[C@@H]1O` (some centres undefined): > 4 mM (inactive). Take `O=C(O)CN1C(=O)c2cccc([N+](=O)[O-])c2C1=O`: the Kd was > 4 mM (inactive). The same measure for `Cc1scc(C(=O)Nn2cnnc2)c1-c1ccccc1`: > 4 mM (inactive); for `COC(=O)c1oc2ccc(Cl)cc2c1NC(C)=O`: > 4 mM (inactive). The same measure for `O=C(O)C1CNc2ccccc2O1` (centres undefined): > 4 mM (inactive).

With `COc1c2c(cc3c1OCO3)CCN(C)C2`, the Kd was > 4 mM (inactive). The same measure for `NC(=O)C1CCN(c2ccc(Cl)nn2)CC1`: > 4 mM (inactive); for `S=c1[nH]cnc2sccc12`: > 4 mM (inactive); for `Cn1cnc2c1c(=O)[nH]c(=O)n2C`: > 4 mM (inactive). For `CN1CCN(c2ccc(CN)cc2)CC1` the value was > 4 mM (inactive); for `CCCc1cc2c(c(NC(C)=O)n1)c(=O)oc1ccccc12`, > 4 mM (inactive). For `c1cc(C(N2CCOCC2)N2CCOCC2)ccn1` the value was > 4 mM (inactive); for `CS(=O)(=O)N1CCN(c2ccccc2F)CC1`, > 4 mM (inactive); for `COc1cc(/C=C/C(=O)O)cc(OC)c1OC`, > 4 mM (inactive). `O=C(O)Cc1noc2ccccc12`: the Kd was > 4 mM (inactive).

With `c1ccc(CCc2nc(-c3ccncc3)no2)cc1`, the Kd is > 4 mM (inactive).

With `Cc1cccc(NC(=O)c2ccc(=O)[nH]n2)c1`, the Kd is > 4 mM (inactive). For `CC(=O)O[C@H]1CC[C@]2(C)C3CC[C@@]4(C)C(CC5O[C@@]6(CCC(C)CO6)[C@@H](C)C54)C3CC[C@@H]2C1` (some centres undefined), the Kd was > 4 mM (inactive). The same measure for `COc1cc(-c2coc3cc(O[C@@H]4O[C@H](CO)[C@@H](O)[C@H](O)[C@H]4O)c(OC)c(O)c3c2=O)cc(O)c1OC`: > 4 mM (inactive); for `CN1CCN(CC(=O)Nc2ccccc2)CC1`: > 4 mM (inactive). For `Cc1cc(N2CCCC2=O)c(N)cc1N` the value was > 4 mM (inactive); for `COC(=O)c1ccc(N2CCOCC2)nc1`, > 4 mM (inactive). Consider `O=C(O)c1ccc(NC(=O)c2cccs2)cc1`, for which the Kd was > 4 mM (inactive). The same measure for `Cc1ccc(C(=O)Nn2cnnc2)s1`: > 4 mM (inactive); for `O=C(c1cc(-c2ccccc2)on1)N1CCCC1`: > 4 mM (inactive). Consider `C=C1C2CC[C@@]3(C)[C@H](c4ccoc4)OC(=O)C[C@]13O[C@H]1CC(=O)C(C)(C)C(CC(=O)OC)C21C` (some centres undefined), for which the Kd was > 4 mM (inactive). The same measure for `CN=C(c1ccc([N+](=O)[O-])cc1)N(C)C`: > 4 mM (inactive); for `C=C[C@@H](C1=CC(=O)C(OC)=C(OC)C1=O)c1ccccc1`: > 4 mM (inactive).

For `C[C@@H]1O[C@@H](O[C@H]2C[C@@H](O)[C@]3(CO)C4C(CC[C@]3(O)C2)[C@@]2(O)CC[C@H](C3=CC(=O)OC3)[C@@]2(C)C[C@H]4O)[C@H](O)[C@H](O)[C@H]1O` (some centres undefined), the Kd is > 4 mM (inactive).

In the case of `S=C(NCc1ccco1)NN1CCOCC1`, the Kd is > 4 mM (inactive). The same measure for `CSc1ccccc1NC(=O)c1cccnc1`: > 4 mM (inactive). The same measure for `COc1cc(-c2csc(C)n2)ccc1O`: > 4 mM (inactive); for `Cc1ccc(-n2nnnc2SCC(N)=O)c(C)c1`: > 4 mM (inactive); for `O=C(Nc1ccncc1)c1cncc(Br)c1`: > 4 mM (inactive). For `NC1=NC(=O)C(Cc2ccccc2)S1` (centres undefined) the value was > 4 mM (inactive); for `NC(=S)CN1CCCC1=O`, > 4 mM (inactive); for `O=c1ccc2ccc(O)cc2o1`, > 4 mM (inactive). For `Cc1cccc(CSc2nncc(=O)[nH]2)c1`, the Kd was > 4 mM (inactive). In the case of `CN(C)C(=S)Nc1ccc([N+](=O)[O-])cc1`, the Kd is > 4 mM (inactive). Turning to `CCC(C)C(=O)c1c(O)c(C)c2oc3c(C)c(O)c(C(=O)C(C)CC)c(O)c3c2c1O` (centres undefined), the Kd was > 4 mM (inactive). For `C#CCCCCCCCCCCCC(O)CC(O)COC(C)=O` (centres undefined) the value was > 4 mM (inactive); for `Cc1c(/C=N/O)cnn1C`, > 4 mM (inactive); for `Nc1ncnc2c1ncn2CCOc1ccccc1`, > 4 mM (inactive).

With `c1ccc2[nH]c(-c3cscn3)nc2c1`, the Kd is 0.111 mM and 0.056 mM.

For the compound `NC(C(=O)O)C(O)C(=O)O` (centres undefined), the Kd was > 4 mM (inactive).

On to `Cc1nc(N)sc1C(=O)N/N=C/c1ccncc1`, for which the Kd is > 4 mM (inactive).

In the case of `O=C(CCc1ccc(O)cc1)c1c(O)cc(O)cc1O[C@@H]1O[C@H](CO)[C@@H](O)[C@H](O)[C@H]1O`, the Kd is > 4 mM (inactive). The same measure for `COc1ccc(NC(=O)/C=N/O)cc1`: > 4 mM (inactive). `CN(C)C(=O)Nc1ccc(F)cc1F`: the Kd is > 4 mM (inactive).

For `CNC(=S)Nc1cccc(C(=O)O)c1`, the Kd is > 4 mM (inactive). For `Cc1nn(CC(=O)Nc2ccccc2)c(=O)c2ccccc12` the value was > 4 mM (inactive). For `O=C1CSC2(CN3CCC2CC3)N1` (centres undefined) the value was > 4 mM (inactive); for `O=C(O)CNc1ncnc2nc[nH]c12`, > 4 mM (inactive); for `O=C(c1ccco1)N1CCN(c2ccc(Cl)cc2)CC1`, > 4 mM (inactive). The same measure for `COc1cc(O)c2c(=O)cc(-c3ccc(OC)c(-c4c(O)cc(O)c5c(=O)cc(-c6ccc(O)cc6)oc45)c3)oc2c1`: > 4 mM (inactive); for `Cc1cc(NS(=O)(=O)Cc2ccccc2)no1`: > 4 mM (inactive). Regarding `O=S1(=O)CCC(NC(=S)N2CCOCC2)C1` (centres undefined), the equilibrium dissociation constant (Kd) is 0.0474 mM. For `Oc1ccc(-n2ccnc2)cc1` the value was > 4 mM (inactive). For `Fc1ccc(CN2CCCNCC2)cc1`, the Kd was > 4 mM (inactive). As for `COc1ccc([C@@H](C)C(=O)c2ccc(O)cc2O)cc1`, the Kd was > 4 mM (inactive).

For `O=C(NC1=NCCS1)c1cccc(F)c1`, the Kd was > 4 mM (inactive). The same measure for `C=C1CCC(C2CC(=O)OC2=O)C(=O)CCC2C1CC2(C)C` (centres undefined): > 4 mM (inactive).

Regarding `COc1ccc(/C=C2/NC(=S)NC2=O)cc1`, the Kd is > 4 mM (inactive).

With `Fc1cccc(Cl)c1CN1CCNCC1`, the Kd was > 4 mM (inactive). The same measure for `Cc1n[nH]c(C)c1NC(=O)c1cccc(F)c1`: > 4 mM (inactive); for `O=C(c1ccccc1-c1ccccc1)N1CCOCC1`: > 4 mM (inactive).

For `O=C(Cn1c(-c2cscn2)nc2ccccc21)Nc1ccc(Cl)cc1`, the Kd was > 4 mM (inactive). As for `O=C(CSc1ccnc(=O)[nH]1)NCc1ccco1`, the Kd was > 4 mM (inactive).

With `Cn1c(=O)n(CC(=O)N2CCOCC2)c2ccccc21`, the Kd is > 4 mM (inactive). `O=C(NCC1CCNCC1)c1ccncc1`: the Kd is > 4 mM (inactive). Consider `c1ccc(C[N+]23CCN(CC2)CC3)cc1`, for which the Kd was > 4 mM (inactive). Take `Cc1cc2c(nn1)CCc1nonc1-2`: the Kd was > 4 mM (inactive). For `O=C(Nc1cccnc1)N1CCOCC1` the value was > 4 mM (inactive); for `O=C(CSc1ccccc1)N1CCC2(CC1)OCCO2`, > 4 mM (inactive); for `c1ccc2c(c1)CN1CCCC1=N2`, > 4 mM (inactive).

Take `CC(=O)Nc1ccc(Nc2nnc(C)c(=O)[nH]2)cc1`: the Kd was > 4 mM (inactive). For `CC(=O)Nc1nnc(-c2ccccn2)o1` the value was > 4 mM (inactive); for `CC(=O)NC(=S)Nc1ccccc1N1CCOCC1`, > 4 mM (inactive); for `c1ccc(SCc2nc(-c3cccnc3)no2)cc1`, > 4 mM (inactive). For `COc1ccc(C)cc1S(=O)(=O)NC1CCCC1` the value was > 4 mM (inactive). For `O=C(O)C1NCCc2ccccc21` (centres undefined) the value was > 4 mM (inactive); for `O=C1NC(=S)N/C1=C/c1ccc(O)c(Cl)c1`, > 4 mM (inactive); for `Cc1n[nH]c(=O)nc1N1CCN(c2ccccc2)CC1`, > 4 mM (inactive). Turning to `ON=c1ccc2nc3ccccc3nc2cc1`, the Kd was > 4 mM (inactive). As for `O=C(Nc1ccc(O)cc1)N1CCOCC1`, the Kd is > 4 mM (inactive). The same measure for `CCOC(=O)c1cnc2sccn2c1=O`: > 4 mM (inactive); for `Cc1ccccc1CSc1nnc(C)n1N`: > 4 mM (inactive). The same measure for `CC1=C(C(N)=O)C(c2cccs2)C(C(N)=O)=C(C)N1`: > 4 mM (inactive); for `Fc1ccc(Cn2c(-c3cscn3)nc3ccccc32)c(Cl)c1`: “inactive”; for `O=C(Nc1ccc2c(c1)OCCO2)c1ccncc1`: > 4 mM (inactive). For the compound `Cc1csc(NC(=O)c2cccs2)n1`, the Kd is > 4 mM (inactive). Consider `Cc1ccc2[nH]c3nc(=S)[nH]nc3c2c1`, for which the Kd was > 4 mM (inactive).
